Data on 17 compounds can be found in patent US8835429B2, “Pyrimidine compounds, their use as mTOR kinase and Pl3 kinase inhibitors, and their syntheses” (Wyeth LLC, priority 2009, dated 2014).

The test system of one test is MDA468. The test can be described thus: In vitro cell growth assay (MTS), MDA468. To be noted: 72 h, human breast line MDA468, three days after drug treatment, read-out: MDA IC50. The format is cell-based. How it is done: (§1) The cell lines used were human prostate lines LNCap and PC3MM2, human breast lines MDA468 and MCF7, human renal line HTB44 (A498), human colon line HCT116, and human ovarian line OVCAR3. Cells were plated in 96-well culture plates. One day following plating, the inhibitors were added to cells. Three days after drug treatment, viable cell densities were determined by metabolic conversion (by viable cells) of the dye MTS, a well-established cell proliferation assay. The assays were performed using an assay kit purchased from Promega Corp. (Madison, Wis.) following the protocol supplied with the kit. The MTS assay results were read in a 96-well plate reader by measuring absorbance at 490 nm. The effect of each treatment was calculated as percent of control growth relative to the vehicle-treated cells grown in the same culture plate.

The next test deals with LNCap. The test can be described thus: In vitro cell growth assay (MTS), LNCap. The format is cell-based. The note with it: LNCaP, 72 h, human prostate line, three days after drug treatment. How it is done:
as §1

In another test the target is PI3K-alpha (Homo sapiens, UniProt P42336). The test can be described thus: PI3K-alpha fluorescence polarization assay. It counts as biochemical. To be noted: 20 μM PIP2, 25 μM ATP; read-out: PI3Kα IC50. How it is done:
The reaction buffer was 20 mM HEPES, pH 7.5, 2 mM MgCl2, 0.05% CHAPS; and 0.01% βME (added fresh). The stop/detection buffer was 100 mM HEPES, pH 7.5, 4 mM EDTA, 0.05% CHAPS; ATP 20 mM in water; PIP2 (diC8, Echelon, Salt Lake City Utah cat #P-4508) 1 mM in water (MW=856.5). The GST-GRP was 1.75 mg/mL or 1.4 mg/mL in 10% glycerol. The red detector (TAMRA) was 2.5 μM. Nunc 384-well black polypropylene fluorescent plates were used for PI3K assays.
The assay is run by placing 5 μL of diluted enzyme per well, then 5 μL of diluted compound (or 9.5 μL enzyme then 0.5 μL compound in DMSO) is added and mixed. Then, 10 μL substrate is added to start the reaction. The samples are incubated 30-60 minutes, then the reaction is stopped by adding 20 μL stop/detector mix. PI3K is diluted with reaction buffer (e.g., 5 μL or 7.5 μL PI3K into 620 μL reaction buffer), and 5 μL of diluted enzyme is used per well. A 5 μL portion of reaction buffer or of drug diluted in buffer (e.g., 4 μL/100 so final DMSO is 1% in reaction) is added to each. Pipetting up and down mixes the samples. Alternatively, the enzyme can be diluted to 1215 μL. In this case 9.8 μL is added per well and 0.2 μL compound is added in DMSO.
To prepare 1 mL of substrate solution, 955 μL reaction buffer, 40 μL PIP2, and 2.5 μL ATP are mixed. 10 μL of substrate is added to each well to start the reaction. […] The stop/detector mix is prepared by mixing 4 μL red detector and 1.6 μL or 2.0 μL GST-GRP with 1 mL stop buffer, which results in 10 nM probe and 70 nM GST-GRP. 20 μL of the stop/detector mix is added to each well to stop the reaction. The plates are read after 30-90 minutes keeping the red probe solutions dark. For the zero time point, stop/detector mix is added to the enzyme just before adding substrate. For an extra control, stop/detector mix is added to buffer (no enzyme) and substrate or to just buffer (no substrate). […] The recommended reaction has 0.06 μL per 20 μL (0.015 μg/20 μL) or 0.01125 μg/15 μL or 0.75 μg/mL.
Plates are read on machines with filters for TAMRA. The units are mP with no enzyme controls reading app 190-220 mP units. Fully active enzyme reduces fluorescence polarization down to 70-100 mP after 30 minutes. An active compound raises the mP values halfway to control or to 120-150 mP units.
Background: Fluorescence polarisation rises when a labelled molecule tumbles more slowly, as on binding a larger partner.

The target of the next test is mTOR (Homo sapiens, UniProt P42345). As to the kind of experiment: mTOR enzyme assay (DELFIA, purified FLAG-TOR, His6-S6K substrate). It counts as biochemical. Further details: FLAG. The note with it: 100 μM ATP, 2 hours.
Sequence of mTOR (P42345 1360-2549 limits assumed): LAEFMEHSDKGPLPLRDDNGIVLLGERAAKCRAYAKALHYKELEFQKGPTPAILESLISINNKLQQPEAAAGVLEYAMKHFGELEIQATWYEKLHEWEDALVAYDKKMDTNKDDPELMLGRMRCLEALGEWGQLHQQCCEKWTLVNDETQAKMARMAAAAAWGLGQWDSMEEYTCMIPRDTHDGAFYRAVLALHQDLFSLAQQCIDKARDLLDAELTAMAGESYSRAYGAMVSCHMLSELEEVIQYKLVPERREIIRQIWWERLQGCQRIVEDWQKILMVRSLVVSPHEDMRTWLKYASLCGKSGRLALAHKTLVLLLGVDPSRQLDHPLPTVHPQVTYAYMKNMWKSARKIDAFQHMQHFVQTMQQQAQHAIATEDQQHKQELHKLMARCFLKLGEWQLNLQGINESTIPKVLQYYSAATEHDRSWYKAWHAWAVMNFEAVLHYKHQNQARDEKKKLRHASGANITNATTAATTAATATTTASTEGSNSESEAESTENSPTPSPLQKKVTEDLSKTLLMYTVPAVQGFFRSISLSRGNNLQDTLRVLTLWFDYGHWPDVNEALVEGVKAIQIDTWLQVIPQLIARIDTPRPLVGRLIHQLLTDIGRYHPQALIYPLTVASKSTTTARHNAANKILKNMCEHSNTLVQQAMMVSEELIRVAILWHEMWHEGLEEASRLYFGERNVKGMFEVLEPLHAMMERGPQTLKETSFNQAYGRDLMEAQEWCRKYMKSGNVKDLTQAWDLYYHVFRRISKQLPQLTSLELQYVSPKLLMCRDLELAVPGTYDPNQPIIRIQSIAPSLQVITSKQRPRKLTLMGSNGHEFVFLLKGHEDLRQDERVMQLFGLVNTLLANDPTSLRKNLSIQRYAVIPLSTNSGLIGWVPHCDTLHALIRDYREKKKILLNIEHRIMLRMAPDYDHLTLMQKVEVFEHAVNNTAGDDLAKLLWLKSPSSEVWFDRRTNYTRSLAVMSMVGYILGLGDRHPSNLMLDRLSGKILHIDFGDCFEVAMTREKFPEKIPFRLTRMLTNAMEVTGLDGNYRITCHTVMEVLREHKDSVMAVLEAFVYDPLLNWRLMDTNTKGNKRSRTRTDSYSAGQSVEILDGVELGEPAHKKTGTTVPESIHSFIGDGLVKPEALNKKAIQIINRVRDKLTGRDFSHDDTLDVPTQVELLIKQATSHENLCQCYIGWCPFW

Sequence of PI3K-alpha (P42336 whole entry, species assumed): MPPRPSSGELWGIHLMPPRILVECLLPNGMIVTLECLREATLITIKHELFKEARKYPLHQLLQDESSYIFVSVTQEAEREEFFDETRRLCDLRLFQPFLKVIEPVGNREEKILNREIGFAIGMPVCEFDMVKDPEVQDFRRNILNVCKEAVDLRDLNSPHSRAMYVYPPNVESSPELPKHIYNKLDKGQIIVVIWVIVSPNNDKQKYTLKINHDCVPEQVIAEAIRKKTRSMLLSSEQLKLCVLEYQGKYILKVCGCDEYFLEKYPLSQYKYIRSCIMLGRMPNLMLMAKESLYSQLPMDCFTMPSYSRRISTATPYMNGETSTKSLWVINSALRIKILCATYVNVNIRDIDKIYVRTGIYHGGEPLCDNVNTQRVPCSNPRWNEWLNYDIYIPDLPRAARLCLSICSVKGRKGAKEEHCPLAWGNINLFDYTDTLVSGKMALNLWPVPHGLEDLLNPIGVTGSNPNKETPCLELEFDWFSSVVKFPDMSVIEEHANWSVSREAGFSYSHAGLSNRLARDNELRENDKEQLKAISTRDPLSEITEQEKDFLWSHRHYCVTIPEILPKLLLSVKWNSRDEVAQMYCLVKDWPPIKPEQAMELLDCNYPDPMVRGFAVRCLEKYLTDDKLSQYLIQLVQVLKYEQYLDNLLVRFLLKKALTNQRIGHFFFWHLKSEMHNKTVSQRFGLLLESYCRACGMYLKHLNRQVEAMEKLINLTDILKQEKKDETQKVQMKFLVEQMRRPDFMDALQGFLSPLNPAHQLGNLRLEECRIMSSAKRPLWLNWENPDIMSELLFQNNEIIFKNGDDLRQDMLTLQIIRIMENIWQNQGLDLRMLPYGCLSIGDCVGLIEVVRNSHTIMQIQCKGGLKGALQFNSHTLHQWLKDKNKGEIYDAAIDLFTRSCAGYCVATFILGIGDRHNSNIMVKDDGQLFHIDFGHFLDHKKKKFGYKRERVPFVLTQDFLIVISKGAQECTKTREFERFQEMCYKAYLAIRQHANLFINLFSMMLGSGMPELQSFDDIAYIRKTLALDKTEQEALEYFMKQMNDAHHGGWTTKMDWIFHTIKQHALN
Sequence of PI3K-alpha (P27986 whole entry partner, species assumed): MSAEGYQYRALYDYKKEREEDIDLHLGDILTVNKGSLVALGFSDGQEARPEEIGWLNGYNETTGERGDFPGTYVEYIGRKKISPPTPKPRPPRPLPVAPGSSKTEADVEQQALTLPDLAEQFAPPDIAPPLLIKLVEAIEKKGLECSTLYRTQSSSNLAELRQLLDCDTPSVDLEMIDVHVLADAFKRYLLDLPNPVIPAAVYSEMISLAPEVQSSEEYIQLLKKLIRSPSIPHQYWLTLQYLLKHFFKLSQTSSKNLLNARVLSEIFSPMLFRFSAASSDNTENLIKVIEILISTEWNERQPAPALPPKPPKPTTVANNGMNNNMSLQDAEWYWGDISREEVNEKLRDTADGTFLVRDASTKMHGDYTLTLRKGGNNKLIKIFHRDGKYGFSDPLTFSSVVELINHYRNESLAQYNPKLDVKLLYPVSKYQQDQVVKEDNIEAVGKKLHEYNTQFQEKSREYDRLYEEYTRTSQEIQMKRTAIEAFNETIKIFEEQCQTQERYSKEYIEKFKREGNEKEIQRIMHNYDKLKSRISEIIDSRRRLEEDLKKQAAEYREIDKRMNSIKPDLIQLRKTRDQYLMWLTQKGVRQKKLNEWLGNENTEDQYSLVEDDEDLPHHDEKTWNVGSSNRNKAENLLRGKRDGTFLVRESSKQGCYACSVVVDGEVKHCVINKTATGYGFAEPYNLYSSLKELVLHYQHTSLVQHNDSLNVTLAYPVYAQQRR

Regarding `O=C(Nc1ccncc1)Nc1ccc(-c2cc(N3CC4CCC(C3)O4)nc(-c3ccc(NC(=O)Nc4ccncc4)cc3)n2)cc1` [N,N″-{[6-(8-oxa-3-azabicyclo[3.2.1]oct-3-yl)pyrimidine-2,4-diyl]di-4,1-phenylene}bis(3-pyridin-4-ylurea)], the IC50 (usually the concentration at which inhibition is half-maximal) with MDA468 was 780 nM; in the test with LNCap, 220 nM; on PI3K-alpha, 69.5 nM; on mTOR, 3.2 nM.
In the case of `CNC(=O)Nc1ccc(-c2nc(NC(C)C)cc(N3CC4CCC(C3)O4)n2)cc1` [1-methyl-3-(4-{4-[(1-methylethyl)amino]-6-(8-oxa-3-azabicyclo[3.2.1]oct-3-yl)pyrimidin-2-yl}phenyl)urea], the IC50 was 2100 nM in the test with MDA468, 500 nM in the test on LNCap, 810 nM on PI3K-alpha and 12 nM on mTOR.
`CCNC(=O)Nc1ccc(-c2cc(N3CC4CCC(C3)O4)nc(-c3ccc(NC(=O)NCC)cc3)n2)cc1` [N′,N′″-{[6-(8-oxa-3-azabicyclo[3.2.1]oct-3-yl)pyrimidine-2,4-diyl]di-4,1-phenylene}bis(1-ethylurea)]: the half-inhibitory concentration (IC50) in the test with MDA468 was 790 nM; in the test on LNCap it was 310 nM; at PI3K-alpha, 1660 nM; on mTOR, 1.85 nM.
In the case of `CC(C)Oc1cc(N2CC3CCC(C2)O3)nc(-c2ccc(NC(=O)Nc3ccncc3)cc2)n1` [1-{4-[4-(1-methylethoxy)-6-(8-oxa-3-azabicyclo[3.2.1]oct-3-yl)pyrimidin-2-yl]phenyl}-3-pyridin-4-ylurea], the half-inhibitory concentration (IC50) turned out to be 180 nM in the test with MDA468, 23 nM in the test with LNCap, 264 nM on PI3K-alpha and 1.35 nM on mTOR.
In the same order, the values of `CN1CCN(c2ccc(NC(=O)Nc3ccc(-c4nc(-c5ccccc5)cc(N5CC6CCC(C5)O6)n4)cc3)cc2)CC1` [1-[4-(4-methylpiperazin-1-yl)phenyl]-3-{4-[4-(8-oxa-3-azabicyclo[3.2.1]oct-3-yl)-6-phenylpyrimidin-2-yl]phenyl}urea] are 270 nM, 78 nM, 2430 nM and 17.5 nM.
Turning to `CC(C)Nc1cc(N2C3CCC2COC3)nc(-c2ccc(NC(=O)Nc3ccc(N4CCN(C)CC4)nc3)cc2)n1` [1-{4-[4-(isopropylamino)-6-(3-oxa-8-azabicyclo[3.2.1]oct-8-yl)pyrimidin-2-yl]phenyl}-3-[6-(4-methylpiperazin-1-yl)pyridin-3-yl]urea], the IC50 in the test with MDA468 amounted to 100 nM; in the test on LNCap, 90 nM; at PI3K-alpha, 3870 nM; on mTOR, 4.2 nM.
For `O=C(Nc1ccc(-c2nc(N3CC4CCC(C3)O4)cc(C(F)(F)F)n2)cc1)NC1CC1` [1-cyclopropyl-3-{4-[4-(8-oxa-3-azabicyclo[3.2.1]oct-3-yl)-6-(trifluoromethyl)pyrimidin-2-yl]phenyl}urea], in that order: 3000 nM, 450 nM, 8160 nM and 10.4 nM.
For `O=C(Nc1ccc(-c2nc(-c3ccccc3)cc(N3CC4CCC(C3)O4)n2)cc1)OCCO` [2-hydroxyethyl {4-[4-(8-oxa-3-azabicyclo[3.2.1]oct-3-yl)-6-phenylpyrimidin-2-yl]phenyl}carbamate], in that order: 5500 nM, 600 nM, 452 nM and 21.5 nM.
As to `O=C(Nc1ccncc1)Nc1ccc(-c2nc(N3CC4CCC(C3)O4)cc(C(F)(F)F)n2)cc1` [1-{4-[4-(8-oxa-3-azabicyclo[3.2.1]oct-3-yl)-6-(trifluoromethyl)pyrimidin-2-yl]phenyl}-3-pyridin-4-ylurea], the IC50 stood at 250 nM in the test on MDA468, 50 nM in the test on LNCap, 280 nM at PI3K-alpha and 2.45 nM on mTOR.
On to `CN1CCN(c2ccc(NC(=O)Nc3ccc(-c4nc(N5C6CCC5COC6)cc(N5C6CCC5COC6)n4)cc3)cc2)CC1` [1-[4-(4,6-di-3-oxa-8-azabicyclo[3.2.1]oct-8-ylpyrimidin-2-yl)phenyl]-3-[4-(4-methylpiperazin-1-yl)phenyl]urea], for which the IC50 is 0.8 nM in the test with MDA468, at most 0.8 nM in the test with LNCap, 1140 nM on PI3K-alpha and 1.7 nM against mTOR.
For `CC(C)Nc1cc(N2C3CCC2COC3)nc(-c2ccc(NC(=O)Nc3ccc(N4CCN(C)CC4)cc3)cc2)n1` [1-{4-[4-(isopropylamino)-6-(3-oxa-8-azabicyclo[3.2.1]oct-8-yl)pyrimidin-2-yl]phenyl}-3-[4-(4-methylpiperazin-1-yl)phenyl]urea], in that order: 34 nM, 19 nM, 2000 nM and 2.7 nM.
In the same order, the values of `O=C(Nc1ccc(-c2cc(N3CC4CCC(C3)O4)nc(-c3ccc(NC(=O)NC4CC4)cc3)n2)cc1)NC1CC1` [N′,N′″-{[6-(8-oxa-3-azabicyclo[3.2.1]oct-3-yl)pyrimidine-2,4-diyl]di-4,1-phenylene}bis(1-cyclopropylurea)] are 1500 nM, 310 nM, 2920 nM and 4 nM.
Regarding `O=C(Nc1ccc(-c2nc(N3CC4CCC(C3)O4)cc(C(F)(F)F)n2)cc1)OCCO` [2-hydroxyethyl {4-[4-(8-oxa-3-azabicyclo[3.2.1]oct-3-yl)-6-(trifluoromethyl)pyrimidin-2-yl]phenyl}carbamate], the IC50 turned out to be 4000 nM in the test with MDA468, 950 nM with LNCap, 5160 nM on PI3K-alpha and 15.5 nM on mTOR.
Take `O=C(Nc1ccc(-c2cc(N3CC4CCC(C3)O4)nc(-c3ccc(NC(=O)Nc4cccnc4)cc3)n2)cc1)Nc1cccnc1` [N,N″-{[6-(8-oxa-3-azabicyclo[3.2.1]oct-3-yl)pyrimidine-2,4-diyl]di-4,1-phenylene}bis(3-pyridin-3-ylurea)]: the IC50 was 380 nM with MDA468, 180 nM in the test with LNCap, 101 nM at PI3K-alpha and 2.8 nM at mTOR.
For `CNCc1ccc(NC(=O)Nc2ccc(-c3nc(CS(C)(=O)=O)cc(N4CC5CCC(C4)O5)n3)cc2)cc1` [1-{4-[(methylamino)methyl]phenyl}-3-(4-{4-[(methylsulfonyl)methyl]-6-(8-oxa-3-azabicyclo[3.2.1]oct-3-yl)pyrimidin-2-yl}phenyl)urea], in that order: 1560 nM, 1100 nM, 63.5 nM and 4.15 nM.
Turning to `O=C(Nc1ccc(-c2nc(-c3ccccc3)cc(N3CC4CCC(C3)O4)n2)cc1)NC1CC1` [1-cyclopropyl-3-{4-[4-(8-oxa-3-azabicyclo[3.2.1]oct-3-yl)-6-phenylpyrimidin-2-yl]phenyl}urea], the IC50 was 5000 nM in the test with MDA468, 1000 nM with LNCap, 3680 nM on PI3K-alpha and 19.5 nM on mTOR.
With `CNC(=O)Nc1ccc(-c2cc(N3CC4CCC(C3)O4)nc(-c3ccc(NC(=O)NC)cc3)n2)cc1` [N′,N′″-{[6-(8-oxa-3-azabicyclo[3.2.1]oct-3-yl)pyrimidine-2,4-diyl]di-4,1-phenylene}bis(1-methylurea)], the IC50 in the test with MDA468 was found to be 1100 nM; in the test on LNCap it was 1200 nM; at PI3K-alpha, 990 nM; at mTOR it was 2.8 nM.
